Experimental data taken from patent publication US20040082550A1, “Tropolone derivative” (priority 2000, published 2004).

System: promyelocyte leukemia cell strain HL-60
Assay: Test for induction of cell differentiation in HL-60 cells (NBT reduction ability)
Assay type: cell-based
Conditions: for Ratio of cells for which differentiation was induced by each compound alone (%): calculated from NBT reduction ability; for Ratio of cells for which differentiation was induced by each compound in combination with 1 × 10^−7 M of HX630 (%): in combination with 1×10^−7 M HX630 (retinoid synergist)
Experimental: For each of the compounds of the examples, action for inducing cell differentiation was examined for each alone and in combination with 1×10^−7 M of HX630. According to the methods described in Japanese Patent Unexamined Publication (KOKAI) No. (Sho)61-76440/1986, differentiation of the cells of promyelocyte leukemia cell strain HL-60 into granulocytic series cells was determined based on morphological change and measurement of ability to reduce nitro blue tetrazolium (NBT). The ratios (%) of differentiated cells shown in the following table are those calculated from NBT reduction ability. HX630 is a retinoid synergist that enhances actions of retinoids, and the concentrations of −8, −7 and −6 mean that each compound was added at concentrations of 1×10^−8 M, 1×10^−7 M and 1×10^−6 M, respectively.

[1] = compound concentration -6 (1×10^−6 M)
[2] = compound concentration -7 (1×10^−7 M)
[3] = compound concentration -8 (1×10^−8 M)

Compound | Ratio of cells for which differentiation was induced by each compound alone (%) (concentration -6 (1×10^−6 M)) | Ratio of cells for which differentiation was induced by each compound alone (%) (concentration -7 (1×10^−7 M)) | Ratio of cells for which differentiation was induced by each compound alone (%) (concentration -8 (1×10^−8 M)) | Ratio of cells for which differentiation was induced by each compound in combination with 1 × 10^−7 M of HX630 (%) [1] | Ratio of cells for which differentiation was induced by each compound in combination with 1 × 10^−7 M of HX630 (%) [2] | Ratio of cells for which differentiation was induced by each compound in combination with 1 × 10^−7 M of HX630 (%) [3]
O=C(Nc1ccc(O)c(=O)cc1)c1cc(C(F)(F)F)cc(C(F)(F)F)c1 [Tp60] | 2.1% | 1.3% | 0.8% | 37.8% | 21.2% | 2.2%
Cc1cc2c(cc1C#Cc1ccc(O)c(=O)cc1)C(C)(C)CCC2(C)C [Tp145] | 70% | 76% | 73% | 77% | 75% | 82%
Cc1cc2c(cc1Nc1ccc(O)c(=O)cc1)C(C)(C)CCC2(C)C [Tp20] | 2.7% | 1.8% | 2.1% | 2.4% | 3.7% | 4.6%
CC(C)(C)c1cc(C(=O)Nc2ccc(O)c(=O)cc2)cc(C(C)(C)C)c1 [Tp50] | 5.1% | 2.8% | 1.6% |  |  | 
CC1(C)CCC(C)(C)c2cc(S(=O)(=O)Nc3ccc(O)c(=O)cc3)ccc21 [Tp40] | 2.3% | 0.9% | 1.3% | 2% | 2.5% | 1.8%
CC1(C)CCC(C)(C)c2cc(NC(=O)Nc3ccc(O)c(=O)cc3)ccc21 [Tp30] | 1.2% | 1.5% | 1.3% | 20% | 2.3% | 2.5%
CC1(C)CCC(C)(C)c2cc3sc(-c4ccc(O)c(=O)cc4)cc3cc21 [Tp260] | 55% | 20% | 10% | 67% | 83% | 91%
CC(C)(C)c1cc(N=Nc2ccc(O)c(=O)cc2)cc(C(C)(C)C)c1 [Tp170] | 2.3% | 0.8% | 1.1% | 10% | 2.3% | 0.5%
CC1(C)CCC(C)(C)c2cc(C#Cc3ccc(NN)c(=O)cc3)ccc21 [Tp146] | 69% | 2.2% | 3.6% | 83% | 91% | 66%
CC1(C)CCC(C)(C)c2cc3cc(-c4ccc(O)c(=O)cc4)ccc3cc21 [Tp250] | 56% | 66% | 63% | 79% | 84% | 91%
